Assay results published in patent US7732563B2, “Cloning, sequencing and expression of a gene encoding an eukaryotic amino acid racemase, and diagnostic, therapeutic, and vaccination applications of parasite and viral mitogens” (priority 1999, dated 2010).

Assays:
[1] = system: total spleen cells; assay: In vitro proliferation assay of splenocytes (3H-thymidine uptake); assay type: cell-based, mouse; conditions: for mitogenic activity of rTcPA45 with cultures supplemented with increasing amounts of substrate: 3 mM to 50 mM substrate, dose-dependent, competitive inhibition; for cell proliferation of lymphocytes with substrate alone: 50 mM alone; for mitogenic activity of rTcPA45 after pre-incubation with inhibitor of proline racemase: 50 μg/ml rTcPA45 pre-incubated with 1 mM inhibitor; for 3H-thymidine uptake: after 48 h, ConA 10 μg/ml, LPS 5 μg/ml, BALB/c splenocytes 5×10^4 cells/well
Experimental: Briefly, freshly recovered splenocytes from 8 week old male Balb/c mice seeded at a concentration of 5×10^4 cells/well were incubated for 24, 48 and 72 h in 5% FCS RPMI-1640 medium. A 16 h ^3H-thymidine pulse at 1 μCi/well was performed before harvesting. ^3H-Thymidine uptake was determined in a beta-plate liquid scintillation counter (LKB-Wallac). All points were done in triplicate and the corresponding standard deviation calculated. For comparison, ^3H-thymidine uptake after 48 h in the presence of ConA (10 μg/ml) and LPS (5 μg/ml) was 32000 c.p.m. and 3500 c.p.m., respectively. T-cell depletion was performed by incubating freshly recovered spleen cells for 30 min at 37° C. in the presence of anti-Thy 1.2 monoclonal antibody (Cedarlane) and rabbit complement (Cedarlane). In order to rule out a possible mitogenic effect due to LPS contamination in samples, proliferation assays were also performed on freshly recovered splenocytes from the LPS non-responder mouse strain C3H/Hej. Same levels of proliferation were verified. Balb/c mice were purchased from Charles River, France. C3H/Hej mice were maintained in our animal facilities.
In vitro proliferation is accomplished using freshly recovered splenocytes from BALB/c mice seeded at a density of 5×10^4 cells/well and incubated for 24, 48 and 72 h with increasing concentrations of total parasite supernatants or recombinant TcPa45 protein or other mitogen (0.07-200 μg/ml) with 0.5 μg/ml of the HPLC fractions, or with the conventionally used mitogens concanavalin A (10 μg/ml) and lipopolysaccharide (5 μg/ml) in 5% FCS in RPMI-1640 complete medium. T-cell depletion is accomplished by incubating freshly recovered spleen cells for 30 min. at 37° C. in the presence of monoclonal antibodies against Thy 1.2 and rabbit complement (Cedarlane, Le Perray en Yvelines, France). Analysis of proliferative activity of total splenocytes (5×10^4 cells/well) in the presence of 50 μg/ml enzymatically active rTcPA45 or other mitogen is also compared with the proliferation obtained using the same amounts of rTcPA45 protein or other mitogen lacking racemase activity (by heating for 10 min. at […] or by long term storage at 4° C.). Inhibition of proliferation is obtained by adding to the splenocyte cultures 50 μg/ml rTcPA45 or other mitogen pre-incubated for 10 min. at 37° C. with 1 mM inhibitor, either specific (pyrrole-2-carboxylic acid) or nonspecific (iodoacetamide or iodoacetate). Competitive assays of proliferative activity by 50 μg/ml rtcPA45 or other mitogen are done by adding increasing concentrations of specific substrates i.e., proline racemase substrates (L- or D-proline) for the mitogen rTcPA45 ranging from 3 mM to 50 mM. Controls include the incubation of splenocytes (5×10^4 cells/well) with substrate alone, i.e., 50 mM L- or D-proline in RPMI medium alone for prline racemase. Cultures are collected after a 16-hour pulse or 1 μCi/well ^3H-thymidine uptake was determined in a beta-plate liquid scintillation counter (LKB-Wallac, Orsay, France). All data points are obtained in triplicate and the corresponding standard deviation is calculated.
5×10^5 naive spleen cells/well (96 well plate) were stimulated in vitro with different doses of rTcPA45 (ranging in FIG. 4b from 0.8 to 200 μg/ml final) for 24, 48 and 72 h, at 37° C., 5% CO2. Cultures were pulsed with ^3H-Thymidine (1 μCi/well) for 16-18 h before harvesting. ^3H-thymidine incorporation was obtained after counting using a beta-plate. Results present arithmetic means of c.p.m. (counts/minute) from 6 wells/dose of rTcPA45 or wells containing medium alone (+/−SD of the means). (FIG. 4b)

[2] = molecular target: T1, rTcPA45 proline racemase (Trypanosoma cruzi, UniProt Q4DA80); assay type: biochemical; conditions: 80 mM L-proline; inhibitors 6 mM to 100 mM
T1 construct: made in house; host or cells: E. coli (pET28b(+))
Experimental: To investigate the genomic organization and transcription of the Tc45 gene, Southern and Northern blot analyses were done. FIG. 4 depicts the results of characterization of rTcPA45 activities. FIG. 4, part a, is an 8% SDS-PAGE gel of rTcPA45 (Coomasie blue staining). Part b depicts the proliferative activity of total splenocytes (5×10^4 cells/well) in the presence of increasing concentrations of rTcPA45 (μg/ml). […] Reaction conditions were: 0.2 M Na-acetate/25 mM β-mercaptoethanol buffer, pH6, rTcPA45 (3 μg/ml), 30 min incubation at 37° C. in 500 μl. The reaction was stopped by incubating for 10 min at 80° C. […] Reactions were carried out for 30 min at 37° C. and stopped for 5 min at 80° C. All reagents and inhibitors were purchased from Sigma. The shift in optical rotation was measured in a Polarimeter 241 MC (Perkin Elmer).
3 μg of rTcPA45 was diluted in 500 μl of buffer (0.2M NaOAc, […] β-mercaptoethanol, pH6.0) containing different concentrations of the substrate (10-80 mM or L- or D-proline). (See FIG. 4c.) The reaction was incubated for 30-60 minutes at 37° C. in a water bath, followed by heat inactivation of the enzyme for 10 minutes at 80° C. Each sample is diluted to 1.5 ml with water and the mixture submitted to measurement of optical rotation using a polarimeter, at 365 nm. A sample without enzyme is used as a control. For optimal pH determination, buffer systems with NaOAc, phosphate, and Tris were used with pH ranging from 4.0-8.2. Curve of temperature was performed between 27° C. to 47° C.
The percent of racemization of different concentrations of L-proline, D-proline, L-hydroxy-proline and D-hydroxy-proline substrates was calculated by incubating a 500-μl mixture of 3 μg TcPA45 and 10-80 mM substrate in 0.2 M sodium acetate and 25 mM β-mercaptoethanol, pH 6, for 30 min at 37° C. The reaction was stopped by incubation for 10 min at 80° C. Water (1 ml) was then added, and the optical rotation was measured in polarimeter 241 MC (Perkin Elmer, Montignyle Bretonneux, France) at a wavelength of 365 nm, in a cell with a path length of 10 cm. The percent inhibition of racemization of 80 mM L-proline was determined in the presence of different concentrations of several specific and nonspecific inhibitors ranging in concentration from 6 mM to 100 mM. The percent racemization of 80 mM L-proline as a function of pH was determined using 0.2 M sodium acetate, potassium phosphate and Tris-HCl buffers containing 25 mM β-mercaptoethanol; reactions were incubated for 30 min at 37° C. as described above. All reagents and inhibitors were purchased from Sigma.

T1 sequence (Q4DA80 30-423): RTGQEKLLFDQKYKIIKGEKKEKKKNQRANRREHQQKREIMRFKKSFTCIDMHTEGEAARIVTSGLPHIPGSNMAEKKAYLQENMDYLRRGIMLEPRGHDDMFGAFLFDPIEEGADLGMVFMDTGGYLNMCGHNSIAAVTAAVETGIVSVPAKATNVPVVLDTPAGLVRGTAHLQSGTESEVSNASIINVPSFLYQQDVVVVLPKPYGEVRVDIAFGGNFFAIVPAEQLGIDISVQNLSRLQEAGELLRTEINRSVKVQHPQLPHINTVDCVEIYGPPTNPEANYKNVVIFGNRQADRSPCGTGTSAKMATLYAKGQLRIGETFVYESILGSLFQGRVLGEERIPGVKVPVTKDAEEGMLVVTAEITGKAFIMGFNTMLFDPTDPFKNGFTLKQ

O=C(O)[C@H]1CCCN1 [D-proline]
mitogenic activity of rTcPA45 with cultures supplemented with increasing amounts of substrate [1]: affected considerably
cell proliferation of lymphocytes with substrate alone [1]: no cell proliferation

O=C(O)[C@@H]1CCCN1 [L-proline]
mitogenic activity of rTcPA45 with cultures supplemented with increasing amounts of substrate [1]: affected considerably
cell proliferation of lymphocytes with substrate alone [1]: no cell proliferation

NC(=O)CI [iodoacetamide, reference compound]
mitogenic activity of rTcPA45 after pre-incubation with inhibitor of proline racemase [1]: abolished
inhibition of rTcPA45 enzymatic (racemase) activity [2]: inhibited to different extents

O=C(O)CI [iodoacetate, reference compound]
mitogenic activity of rTcPA45 after pre-incubation with inhibitor of proline racemase [1]: abolished
inhibition of rTcPA45 enzymatic (racemase) activity [2]: inhibited to different extents

O=C(O)/C=C\C(=O)O [maleic acid, reference compound]
inhibition of rTcPA45 enzymatic (racemase) activity [2]: inhibited to different extents

O=C(O)c1ccc[nH]1 [pyrrole-2-carboxylic acid, reference compound]
mitogenic activity of rTcPA45 after pre-incubation with inhibitor of proline racemase [1]: abolished
inhibition of rTcPA45 enzymatic (racemase) activity [2]: inhibited to different extents

concanavalin A [ConA]
3H-thymidine uptake [1]: 32000 c.p.m.
3H-thymidine uptake ([1]; listed as concavalin A): 32,000 c.p.m.

lipopolysaccharide [LPS]
3H-thymidine uptake [1]: 3500 c.p.m.
3H-thymidine uptake ([1]; listed as lipopolysaccharide): 3,500 c.p.m.
